Results: patent US12325880B2, “Identification of PDE3 modulator responsive cancers” (THE BROAD INSTITUTE, INC., priority 2018, dated 2025)

Legend:
Assay type in all cases: cell-based
PDE3A-SLFN12 complex = target: T1, PDE3A-SLFN12 complex (Homo sapiens, UniProt Q14432); assay: PDE3A immunoprecipitation / immunoblot for PDE3A-SLFN12 complex formation in HeLa cells; conditions: for complex formation between PDE3A and FLAG-tagged SLFN12 with AIP knocked out (FIG. 8B) / complex formation between PDE3A and FLAG-tagged SLFN12 (FIG. 8B): HeLa cells, anti-PDE3A pull down, 10 μM compound; for complex formation between PDE3A and FLAG-tagged SLFN12 with AIP knocked out (FIG. 8B): AIP Crispr knockout (KO sg2, KO sg3)
T1 construct: immunoprecipitated endogenous PDE3A; endogenous in cells; host or cells: HeLa cells, parental or AIP CRISPR knockout; PDE3A is endogenous; SLFN12 is ectopically expressed
T1 sequence (Q14432 whole entry): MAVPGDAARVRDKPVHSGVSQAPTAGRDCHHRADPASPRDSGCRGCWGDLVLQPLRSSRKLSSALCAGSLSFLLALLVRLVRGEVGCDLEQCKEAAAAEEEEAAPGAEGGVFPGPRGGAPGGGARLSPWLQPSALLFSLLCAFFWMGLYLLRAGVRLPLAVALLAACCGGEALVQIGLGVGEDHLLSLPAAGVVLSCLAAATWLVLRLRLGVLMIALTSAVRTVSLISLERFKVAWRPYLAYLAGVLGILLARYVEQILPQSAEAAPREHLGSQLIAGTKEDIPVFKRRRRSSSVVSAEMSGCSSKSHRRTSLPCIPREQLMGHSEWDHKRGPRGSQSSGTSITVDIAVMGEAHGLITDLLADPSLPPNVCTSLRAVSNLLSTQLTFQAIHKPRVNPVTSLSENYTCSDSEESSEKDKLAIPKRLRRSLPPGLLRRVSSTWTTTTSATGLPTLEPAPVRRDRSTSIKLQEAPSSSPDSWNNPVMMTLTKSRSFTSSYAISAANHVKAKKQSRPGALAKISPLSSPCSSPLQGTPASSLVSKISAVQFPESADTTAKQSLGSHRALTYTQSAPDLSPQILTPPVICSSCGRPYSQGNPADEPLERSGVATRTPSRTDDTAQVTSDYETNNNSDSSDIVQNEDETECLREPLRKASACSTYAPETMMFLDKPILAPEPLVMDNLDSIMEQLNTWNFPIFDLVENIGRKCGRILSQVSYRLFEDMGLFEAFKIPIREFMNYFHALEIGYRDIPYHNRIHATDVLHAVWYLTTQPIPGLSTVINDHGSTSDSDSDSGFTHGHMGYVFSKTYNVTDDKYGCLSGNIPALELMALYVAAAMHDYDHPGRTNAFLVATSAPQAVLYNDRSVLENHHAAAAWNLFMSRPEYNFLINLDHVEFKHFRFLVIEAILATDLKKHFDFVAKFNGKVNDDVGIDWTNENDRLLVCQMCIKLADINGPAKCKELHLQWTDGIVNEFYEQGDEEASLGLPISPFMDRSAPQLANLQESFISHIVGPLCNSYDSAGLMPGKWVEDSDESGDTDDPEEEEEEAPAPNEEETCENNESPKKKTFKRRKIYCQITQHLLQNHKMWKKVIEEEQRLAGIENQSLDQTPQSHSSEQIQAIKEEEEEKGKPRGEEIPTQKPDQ
T1 sequence (Q8IYM2 whole entry partner): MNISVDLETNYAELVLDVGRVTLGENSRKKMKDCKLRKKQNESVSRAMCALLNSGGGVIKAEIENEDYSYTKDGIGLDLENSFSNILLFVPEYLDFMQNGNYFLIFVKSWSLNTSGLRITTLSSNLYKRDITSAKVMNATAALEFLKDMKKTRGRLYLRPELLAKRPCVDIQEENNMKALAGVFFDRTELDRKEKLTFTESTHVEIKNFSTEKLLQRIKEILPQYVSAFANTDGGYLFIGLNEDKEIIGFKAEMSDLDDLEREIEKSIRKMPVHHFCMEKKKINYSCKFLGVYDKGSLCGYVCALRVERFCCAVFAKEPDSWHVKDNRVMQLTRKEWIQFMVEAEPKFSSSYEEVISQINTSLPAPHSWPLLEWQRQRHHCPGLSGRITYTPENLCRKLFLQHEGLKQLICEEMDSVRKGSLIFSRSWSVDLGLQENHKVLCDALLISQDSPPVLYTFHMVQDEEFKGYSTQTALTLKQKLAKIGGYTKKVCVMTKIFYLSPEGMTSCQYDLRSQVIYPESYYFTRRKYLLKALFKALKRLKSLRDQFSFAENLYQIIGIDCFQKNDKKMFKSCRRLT
Experimental: Because decreased PDE3A protein expression could impact DNMDP-induced PDE3A-SLFN12 complex formation, the effects of AIP knockout on this complex formation were also measured. As there is no good antibody for SLFN12 protein, we ectopically expressed V5-tagged SLFN12 in parental or AIP-knockout HeLa cells, immunoprecipitated endogenous PDE3A, and assessed whether V5-SLFN12 could be detected in the immunoprecipatites. Cells were plated in 10 cm petri dishes and collected at 50-90% confluence. For PDE3A immunoblotting in biomarker positive cells and in AIP KO cells, cells were seeded in 15 cm plates at similar density as in viability assays with a vessel scaling factor of 5000, e.g., 500 cells per well was scaled to 10^6 cells per 10 cm plate or 2.5×10^6 cells per 15 cm plate, and then cultured for 72 hours before collection. Cell pellets were lysed at 4° C. for 20 minutes in modified RIPA buffer (150 mM NaCl, 10% glycerol, 50 mM Tris-Cl pH 8.0, 50 mM MgCl2, 1% NP-40) supplemented with EDTA-free protease inhibitors (Sigma-Aldrich 4693159001) and PhosSTOP phosphatase inhibitors (Sigma-Aldrich 4906837001). Lysates were clarified by centrifugation at 13,000 rpm×10 min at 4° C. and quantified using BCA protein assays (Thermo Fisher Scientific 23225). Clarified lysates were resolved on 4-12% Bis-Tris PAGE gels, transferred to nitrocellulose membranes (Thermo Fisher Scientific IB23001) and immunoblotted with primary antibodies against PDE3A (Bethyl 302-740A, 1:2000), V5 (Life Technologies R96205 at 1:5,000), AIP (Thermo Fisher Scientific MA3-16515 at 1:2000), Vinculin (Sigma-Aldrich V9264 at 1:5,000), GAPDH (Cell Signaling Technology 2118 at 1:2000) and secondary antibodies from LiCOR Biosciences (92632210 and 926068021, each at 1:10,000). Blots were washed and imaged using a LiCOR Odyssey infrared imager, and fluorescent signals quantified using the Image Studio software provided by the LiCOR manufacturer.

HeLa cells = assay: 72 h Cell Titer Glo viability, HeLa; design: AUC: unit not given beside the values
Experimental: (§1) To measure cancer cell death in response to 6-(4-(diethylamino)-3-nitrophenyl)-5-methyl-4,5-dihydropyridazin-3(2H)-one (DN/DP) treatment, cells were plated in 384w assay plates at the following cell density per well: 500 cells of HeLa (DMEM), A2058 (DMEM), HMCB (EMEM), IGR37 (DMEM), NCIH1734 (RPMI), 750 cells of CAL51 (DMEM), COL0741 (RPMI), DKMG (RPMI), GB1 (EMEM), HEL (RPMI), HEL9217 (RPMI), JHUEM1 (DMEM+F12), L3.3 (RPMI) and TE4 (RPMI), HCC15 (RPMI), UACC257 (RPMI), 1000 cells for HUT78 (IMEM), NCIH1563 (RPMI), NCIH2122 (RPMI), NCIH2172 (RPMI), RVH421 (RPMI) and SKMEL3 (McCoy's 5A), 1500 cells for C32 (EMEM), HS578T (DMEM) and JHOM1 (DMEM+F12). Cells were incubated at 37° C. overnight and then treated with a DNMDP dose dilution series using an HP D300 digital dispenser. After 72 hours, the viability of cells in each well were measured by Cell Titer Glo (Promega G755B and G756B). Percent viability values were determined using the values from untreated wells and AUC values were calculated using a 4-parameter fit. DNMDP was purchased from Life Chemicals (F1638-0042) and trequinsin was purchased from Sigma-Aldrich (T2057).
(§2) PDE3A CRISPR KO cells (sgRNA #2) were generated according to de Waal et al, 2016 (2), hereby incorporated by reference in its entirety. CRISPR target sites for PDE3B and AIP were identified using the CHOPCHOP CRISPR Design Tool (chopchop.cbu.uib.no). For cloning of sgRNAs, forward and reverse oligos were annealed, phosphorylated and ligated into a BsmBI-digested lentiCRISPRv2 vector. Lentivirus carrying each guide construct was packaged as described above and used to infect target cells. Transduced target cells were selected using 1 μg/ml puromycin and passaged for 7 days before use.

C32 melanoma cell line = assay: 72 h Cell Titer Glo viability, C32; design: AUC: unit not given beside the values
Experimental: as §1

[1] = system: RVH421 melanoma cell line; assay: 72 h Cell Titer Glo viability, RVH421
Experimental: as §1

IGR37 melanoma cell line = assay: 72 h Cell Titer Glo viability, IGR37; design: unit not given beside the values; conditions: 72 h Cell Titer Glo dose response, AUC on a scale from 0-4
Experimental: as §1

[2] = system: SKMEL3 melanoma cell line; assay: 72 h Cell Titer Glo viability, SKMEL3; design: unit not given beside the values; conditions: 72 h Cell Titer Glo dose response, AUC on a scale from 0-4
Experimental: as §1

A2058 melanoma cell line = assay: 72 h Cell Titer Glo viability, A2058; design: unit not given beside the values; conditions: 72 h Cell Titer Glo dose response, AUC on a scale from 0-4
Experimental: as §1
PDE3A CRISPR KO cells (sgRNA #2) were generated according to de Waal et al, 2016 (2), hereby incorporated by reference in its entirety. CRISPR target sites for PDE3B and AIP were identified using the CHOPCHOP CRISPR Design Tool (chopchop.cbu.uib.no). […]

[3] = system: UACC257 melanoma cell line; assay: 72 h Cell Titer Glo viability, UACC257; design: AUC: unit not given beside the values
Experimental: as §1

[4] = system: A2058 and SKMEL3 cells with CRISPR KO of SLFN12; assay: 72 h Cell Titer-Glo survival of cells with CRISPR KO of SLFN12; conditions: CRISPR KO of SLFN12 (sg4)
Experimental: A2058 and SKMEL3 are representative melanoma cell lines. Survival is measured with a 72 h Cell Titer-Glo assay and CRISPR was performed with sg4, SLFN12 CRISPR guide RNA #4.
as §2
FIG. 3A illustrates the survival of cells in the presence of DNMDP that have had CRISPR knockout of SLFN12. FIG. 3B illustrates the survival of cells in the presence of DNMDP that have had CRISPR knockout of PDE3A (with and without ectopic expression of PDE3B). […] The survival in FIGS. 3A and 3B was measured with a 72 h Cell Titer-Glo assay and CRISPR was performed with sg4, SLNF12 CRISPR guide RNA #4.

[5] = system: COLO741 melanoma cell line; assay: 72 h Cell Titer Glo viability, COLO741; design: unit not given beside the values; conditions: 72 h Cell Titer Glo dose response, AUC on a scale from 0-4
Experimental: as §1

HMCB melanoma cell line = assay: 72 h Cell Titer Glo viability, HMCB; design: unit not given beside the values; conditions: 72 h Cell Titer Glo dose response, AUC on a scale from 0-4
Experimental: as §1

complex formation between PDE3A and FLAG-tagged SLFN12 with AIP knocked out (FIG. 8B) (PDE3A-SLFN12 complex)	complex formation between PDE3A and FLAG-tagged SLFN12 (FIG. 8B) (PDE3A-SLFN12 complex)	PDE3A-SLFN12 complex formation after AIP knockout (FIG. 7) (PDE3A-SLFN12 complex; AIP-knockout HeLa cells, V5-tagged SLFN12, PDE3A immunoprecipitates, 10 μM)	SMILES	cancer cell killing in cells lacking AIP (FIG. 8A) (HeLa cells; HeLa cells having an AIP knock out (KOsg2, KOsg3))	cervical cancer cell viability (FIG. 8A) (HeLa cells; HeLa cells, increasing concentrations)	AUC (C32 melanoma cell line; C32 (melanoma), 72 h Cell Titer Glo dose response, AUC on a scale from 0-4)	sensitivity of cell line (dose response, FIG. 2A) (C32 melanoma cell line; C32 cells, 72 h Cell Titer-Glo)	AUC ([1]; RVH421 (melanoma, PDE3B/SLFN12 biomarker-positive), 72 h Cell Titer Glo dose response, AUC on a scale from 0-4)	sensitivity of cell line (dose response, FIG. 2A) ([1]; RVH421 cells, 72 h Cell Titer-Glo)	AUC (IGR37 melanoma cell line)	AUC [2]	AUC (A2058 melanoma cell line)	AUC ([3]; UACC257 (melanoma, lacks AIP expression), 72 h Cell Titer Glo dose response, AUC on a scale from 0-4)	sensitivity of cell line (dose response, FIG. 2A) ([3]; UACC257 cells, 72 h Cell Titer-Glo)	sensitivity after SLFN12 knockout (FIG. 3A) [4]	AUC [5]	AUC (HMCB melanoma cell line)	AUC (HeLa cells; HeLa (cervical), 72 h Cell Titer Glo dose response, AUC on a scale from 0-4)	cell response after AIP knockout (FIG. 6A) (HeLa cells; HeLa cells, AIP CRISPR knockout with independent gRNAs, 72-hour Cell Titer-Glo)	sensitivity in PDE3A knockout cells with ectopic PDE3B expression (FIG. 3B) (HeLa cells; PDE3A knockout HeLa cells, ectopic expression of PDE3B, 72 h Cell Titer-Glo)
not observed	induced	–	C[C@@H]1OC(=O)NN=C1c1ccc(-c2ccc(F)cc2)c(C(F)(F)F)c1 [Compound X, (6S)-5-[4′-fluoro-2-(trifluoromethyl)biphenyl-4-yl]-6-methyl-3,6-dihydro-2H-1,3,4-oxadiazin-2-one]	no cancer cell killing was observed	reduced at increasing concentrations	–	–	–	–	–	–	–	–	–	–	–	–	–	–	–
not observed	induced	completely abolished	CCN(CC)c1ccc(C2=NNC(=O)CC2C)cc1[N+](=O)[O-] (stereo not shown) [DNMDP, 6-(4-(diethylamino)-3-nitrophenyl)-5-methyl-4,5-dihydropyridazin-3(2H)-one]	–	–	3.13	only partially sensitive	3.02	only partially sensitive	1.17	1.74	2.11	4.00	completely insensitive	SLFN12 knockout abrogates all measured sensitivity	1.19	1.85	0.36	AIP knockout eliminates HeLa cell response	support DNMDP sensitivity
